Source: article PMC5094189 (Journal of the American Chemical Society, 2016)

Legend:
[1] = system: U937 human histiocytic lymphoma cells; details: cited from earlier work
[2] = system: U937 human histiocytic lymphoma cells; details: cited from earlier work; remark: listed apart in the source
[3] = system: TNFα secretion from U937 cells; test: TNFα secretion from U937 cells; format: cell-based, human; details: treatment for 60 hours
Toledo cells = test: Toledo cell growth assay; format: cell-based

SMILES | behavior in U937 promyelocytic leukemia cells [1] | effect on attachment of U937 cells [2] | TNFα secretion [3] | growth inhibition of Toledo cells (Toledo cells) | effect on proliferation of U937 cells [1]
COC(=O)/C=C1\C[C@H]2C[C@]3(O)O[C@H](C[C@@H](O)CC(=O)O[C@@H](C)[C@H](O)C[C@@H]4C[C@@H]5CC(=O)O[C@]5(O4)C(=O)C(C)(C)/C=C/[C@@H](C1)O2)C[C@H](OC(=O)C(C)(C)C)C3(C)C [Neristatin 1] | bryostatin 1-like behavior |  |  |  | 
CCCCCCCCCCCCCC(=O)O[C@@H]1[C@@H](C)[C@@]2(O)[C@@H](C=C(CO)C[C@]3(O)C(=O)C(C)=C[C@@H]23)[C@@H]2C(C)(C)[C@]12OC(C)=O [PMA, phorbol 12-myristate 13-acetate] |  | promotes attachment | induces secretion in a dose-dependent manner | induce antiproliferative responses | inhibits the proliferation
CCC/C=C/C=C/C(=O)O[C@H]1/C(=C/C(=O)OC)C[C@H]2C[C@H]([C@@H](C)O)OC(=O)C[C@H](O)C[C@@H]3C[C@H](OC(C)=O)C(C)(C)[C@](O)(C[C@@H]4C/C(=C/C(=O)OC)C[C@H](/C=C/C(C)(C)[C@]1(O)O2)O4)O3 [bryostatin 1] |  | little response | little effect | induce antiproliferative responses | little response
